Source: article PMC11750102, “Inhibition of the anti-apoptotic protein BCL2 in EML4-ALK cell models as a second proposed therapeutic target for non-small cell lung cancer” (PLOS ONE, 2025)

Target: T1, Anaplastic lymphoma kinase (ALK) (Homo sapiens, UniProt Q9UM73)
T1 construct: purified recombinant GST-ALK
Assay: ELISA-based in vitro kinase assay with peptide substrate
Type: biochemical

T1 sequence (Q9UM73 19-1620): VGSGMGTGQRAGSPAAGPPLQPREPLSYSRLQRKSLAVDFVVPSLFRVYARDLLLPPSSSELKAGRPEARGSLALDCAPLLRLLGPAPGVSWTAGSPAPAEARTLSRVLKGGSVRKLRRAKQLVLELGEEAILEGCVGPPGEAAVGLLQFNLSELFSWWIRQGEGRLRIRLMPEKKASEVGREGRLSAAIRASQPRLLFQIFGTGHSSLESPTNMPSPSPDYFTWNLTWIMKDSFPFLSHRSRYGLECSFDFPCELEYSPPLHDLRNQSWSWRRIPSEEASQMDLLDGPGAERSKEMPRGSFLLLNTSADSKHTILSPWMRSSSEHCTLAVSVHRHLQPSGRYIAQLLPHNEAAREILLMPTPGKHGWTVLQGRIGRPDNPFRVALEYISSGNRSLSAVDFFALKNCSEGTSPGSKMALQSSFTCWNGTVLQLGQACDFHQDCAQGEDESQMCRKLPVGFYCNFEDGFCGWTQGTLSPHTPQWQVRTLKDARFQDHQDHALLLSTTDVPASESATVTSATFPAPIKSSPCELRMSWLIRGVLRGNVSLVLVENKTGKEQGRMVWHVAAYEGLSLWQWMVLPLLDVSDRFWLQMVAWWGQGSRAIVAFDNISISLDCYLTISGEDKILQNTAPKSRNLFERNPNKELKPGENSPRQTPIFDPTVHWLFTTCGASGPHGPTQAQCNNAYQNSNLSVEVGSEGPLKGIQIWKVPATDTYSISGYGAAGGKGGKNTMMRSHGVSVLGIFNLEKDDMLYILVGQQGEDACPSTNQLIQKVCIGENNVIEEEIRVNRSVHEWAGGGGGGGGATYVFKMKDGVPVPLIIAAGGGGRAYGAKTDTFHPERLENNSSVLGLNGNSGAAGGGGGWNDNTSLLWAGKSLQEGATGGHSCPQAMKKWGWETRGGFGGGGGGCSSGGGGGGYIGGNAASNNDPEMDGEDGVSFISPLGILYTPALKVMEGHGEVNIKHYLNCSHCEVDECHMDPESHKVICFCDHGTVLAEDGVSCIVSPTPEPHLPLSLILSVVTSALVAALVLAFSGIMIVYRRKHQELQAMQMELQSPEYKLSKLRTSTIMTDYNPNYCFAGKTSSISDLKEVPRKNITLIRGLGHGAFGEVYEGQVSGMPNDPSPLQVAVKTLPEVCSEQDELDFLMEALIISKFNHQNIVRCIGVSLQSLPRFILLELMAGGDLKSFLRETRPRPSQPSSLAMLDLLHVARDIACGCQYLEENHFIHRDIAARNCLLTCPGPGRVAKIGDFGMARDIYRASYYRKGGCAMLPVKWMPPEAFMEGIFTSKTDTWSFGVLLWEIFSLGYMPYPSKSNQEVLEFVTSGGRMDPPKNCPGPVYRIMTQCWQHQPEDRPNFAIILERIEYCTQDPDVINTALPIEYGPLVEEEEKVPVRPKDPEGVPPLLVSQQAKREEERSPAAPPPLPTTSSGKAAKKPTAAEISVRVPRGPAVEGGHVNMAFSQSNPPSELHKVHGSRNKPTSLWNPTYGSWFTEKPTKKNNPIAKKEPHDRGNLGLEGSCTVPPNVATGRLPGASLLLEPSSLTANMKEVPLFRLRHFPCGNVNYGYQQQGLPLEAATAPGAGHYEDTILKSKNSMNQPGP

IC50: 5.5 µM
SMILES: CC1(C)CCC(CN2CCN(c3ccc(C(=O)NS(=O)(=O)c4ccc(NCC5CCOCC5)c([N+](=O)[O-])c4)c(Oc4cnc5[nH]ccc5c4)c3)CC2)=C(c2ccc(Cl)cc2)C1 [ABT-199]
